Where two headings read alike, the source gives them in different places.
What was measured:
[1] = Plasma pharmacokinetics and oral bioavailability in rats; assay type: in vivo, rat; settings: male Sprague Dawley rats, 5 mg/kg, LOQ 0.001 ug/mL
Method: Pharmacokinetic studies in rats are useful for the identification of DGAT-1 inhibitors that have low oral bioavailability and show low systemic exposure (i.e. low circulating levels in plasma).
Methods: Groups of male Sprague Dawley rats (200-250 g) (n=3/group) were administered either an IV bolus (1% Tween-80, pH adjusted to 7, vehicle) or an oral gavage (50% PEG-200 in 1% Tween-80 vehicle) of 5 mg/kg of each DGAT-1 inhibitor. Blood (EDTA) was collected by tail nick at 0.5, 1, 2, 4, 8, 10-12 and 24 hr post dose. Following centrifugation of the blood to obtain plasma, the samples were analyzed by LC-MS/MS method for active metabolite. The pharmacokinetic parameters were calculated by noncompartmental analysis of the plasma concentration-time profile of the active metabolite. The oral bioavailability was determined by dividing the dose-normalized plasma AUC value of the active metabolite following oral administration of the DGAT-1 inhibitor by the plasma AUC value of the active metabolite after IV bolus administration.

hDGAT1 = hDGAT1 (Homo sapiens (Human), UniProt O75907); assay: Inhibition of human microsomal DGAT activity (14C-TAG formation, intestinal microsomes); assay type: biochemical
Method: The inhibition of DGAT-1 activity can be assessed in intestinal microsome preparations by monitoring the incorporation of radiolabeled fatty acyl-CoA into […].
Methods: Commercial microsomal preparations containing 60 ug of protein are incubated in assay buffer [20 uM 1,2-didecanloyl glycerol, 5 uM ^14C decanoyl-CoA, 5 mM MgCl2, 0.4% BSA, 0.1% dimethyl sulfoxide (DMSO), 50 mM HEPES-pH 7.5] in the presence of varying concentrations of inhibitors that are dispensed from 100% DMSO stock solutions. Final assay volumes are 200 uL. Reactions are carried out for 45 minutes in 96-well polystyrene microtiter plates at ambient temperature. Following the ambient temperature incubation, assay mixtures are applied to a 96-well filter plate (Catalog # MSHVN4510, Millipore Inc.; Billerica, Mass.) under vacuum. The filter plate is pre-equilibrated with 100 uL of 70% ethanol followed by 200 uL of assay buffer. […] De novo ^14C-TAG formed in the assay and trapped on the filters is quantified with use of a liquid scintillation counter (Model # LS6500 Beckman Coulter, Inc.; Fullerton, Calif.).

Sprague Dawley rats = assay: In vivo assay for intestinal triglyceride export (serum TAG after olive oil gavage); parameters: species or system rat; settings: oral administration, doses in the range of 0.1 to 30 mg/kg
Method: The following screen can be used to evaluate the effects of DGAT-1 inhibitors on the export of dietary TAGs from the intestine to the circulation in rodents (male Sprague Dawley rats or C57BL/6 mice).
Methods: Animals (housed 2/cage) are fasted overnight, and dosed (PO) the next day with vehicle (1% Tween-80) or test compound at doses ranging from 0.01 to 30 mg/kg, followed by an oral gavage of olive oil. Blood samples are taken at baseline and at appropriate intervals over the course of 4 hours. Serum TAG levels are determined using the Infinity triglyceride reagent per the manufacturer's instructions.

[2] = microsomal preparation, 14C decanoyl-CoA, 45 min, ambient temperature

hDGAT1, sequence (O75907 whole entry): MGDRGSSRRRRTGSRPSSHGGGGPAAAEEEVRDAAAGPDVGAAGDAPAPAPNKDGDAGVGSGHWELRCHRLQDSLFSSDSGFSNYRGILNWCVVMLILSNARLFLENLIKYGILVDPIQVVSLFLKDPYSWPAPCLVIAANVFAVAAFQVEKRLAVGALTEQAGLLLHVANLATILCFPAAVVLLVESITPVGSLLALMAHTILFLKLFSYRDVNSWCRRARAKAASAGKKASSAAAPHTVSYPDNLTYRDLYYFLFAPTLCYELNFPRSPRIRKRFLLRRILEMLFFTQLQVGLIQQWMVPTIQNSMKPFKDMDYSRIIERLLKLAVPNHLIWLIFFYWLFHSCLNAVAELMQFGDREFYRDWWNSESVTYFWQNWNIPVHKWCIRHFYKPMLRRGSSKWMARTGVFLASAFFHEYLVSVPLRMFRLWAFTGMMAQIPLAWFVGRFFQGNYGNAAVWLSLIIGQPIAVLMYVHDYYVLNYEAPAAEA

SMILES: CP(=O)(O)C[C@H]1CC[C@H](c2ccc(NC(=O)c3nnc(Nc4ccc(F)c(F)c4)o3)cc2)CC1 [Compound 5]
- Cmax [1]: 3 ng/mL
- IC50 (hDGAT1; [2]): < 10 nM
- AUC0-4h of serum TAGs (Sprague Dawley rats): reduced

SMILES: CC1(C)Oc2ncnc(N)c2N=C1c1ccc([C@H]2CC[C@H](CP(=O)(O)C3CC3)CC2)cc1 [Compound 23]
- IC50 (hDGAT1; [2]): < 10 nM

SMILES: CC1(C)Oc2ncnc(N)c2N=C1c1ccc([C@H]2CC[C@H](OP(=O)(O)Cc3ccc(C(=O)O)cc3)CC2)cc1 [Compound 17]
- IC50 (hDGAT1; [2]): < 10 nM

SMILES: CC1(C)Oc2ncnc(N)c2N=C1c1ccc(C2CCC(OP(=O)(O)OC3CCCC3)CC2)cc1 (stereo not shown) [Compound 10]
- IC50 (hDGAT1; [2]): < 10 nM

SMILES: CC(C)COP(=O)(O)O[C@H]1CC[C@H](c2ccc(C3=Nc4c(N)ncnc4OC3(C)C)cc2)CC1 [Compound 8]
- IC50 (hDGAT1; [2]): < 10 nM

SMILES: CC1(C)Oc2ncnc(N)c2N=C1c1ccc(C2CCC(OP(=O)(O)Cc3ccccc3)CC2)cc1 (stereo not shown) [Compound 11]
- IC50 (hDGAT1; [2]): < 10 nM

SMILES: CC1(C)Oc2ncnc(N)c2N=C1c1ccc([C@H]2CC[C@H](CP(=O)(O)c3ccccc3)CC2)cc1 [Compound 21]
- IC50 (hDGAT1; [2]): < 10 nM

SMILES: CC1(C)Oc2ncnc(N)c2N=C1c1ccc([C@H]2CC[C@H](OP(=O)(O)O)CC2)cc1 [Compound 3]
- IC50 (hDGAT1; [2]): < 10 nM

SMILES: CC1(C)Oc2ncnc(N)c2N=C1c1ccc([C@H]2CC[C@H](OP(=O)(O)c3ccccc3)CC2)cc1 [Compound 14]
- IC50 (hDGAT1; [2]): < 10 nM

SMILES: CC1(C)Oc2ncnc(N)c2N=C1c1ccc([C@H]2CC[C@H](OP(=O)(O)c3ccsc3)CC2)cc1 [Compound 20]
- IC50 (hDGAT1; [2]): < 10 nM

SMILES: CC1(C)Oc2ncnc(N)c2N=C1c1ccc([C@H]2CC[C@H](CP(C)(=O)O)CC2)cc1 [Compound 1]
- Cmax [1]: 9 ng/mL
- IC50 (hDGAT1; [2]): < 10 nM
- AUC0-4h of serum TAGs (Sprague Dawley rats): reduced

SMILES: CC1(C)Oc2ncnc(N)c2N=C1c1ccc([C@H]2CC[C@H](OP(=O)(O)c3cccs3)CC2)cc1 [Compound 19]
- IC50 (hDGAT1; [2]): < 10 nM

SMILES: CCOP(=O)(O)OC1CCC(c2ccc(C3=Nc4c(N)ncnc4OC3(C)C)cc2)CC1 (stereo not shown) [Compound 9]
- IC50 (hDGAT1): < 10 nM

SMILES: CP(=O)(O)[C@@H]1CCC[C@H]1C(=O)c1ccc(-c2ccc(NC(=O)Nc3ccccc3)cc2)cc1 [Compound 2]
- Cmax [1]: 5 ng/mL
- AUC0-4h of serum TAGs (Sprague Dawley rats): reduced
